#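 Exposure lasted 48 hours, with cells grown in 96-well plates and compounds tested at five concentrations. GI50 marks 50% less growth. TGI marks complete inhibition of growth.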
# Assays:
# Experiment in all cases: inhibition of tumour cell growth, NCI panel, 48 h
# 786-0 renal = tested on: 786-0 renal
# A498 renal = tested on: A498 renal
# A549 NSCLC = tested on: A549 NSCLC
# ACHN renal = tested on: ACHN renal
# BT-549 breast = tested on: BT-549 breast
# CAKI-1 renal = tested on: CAKI-1 renal
# CCRF-CEM leukemia = tested on: CCRF-CEM leukemia
# COLO 205 colon = tested on: COLO 205 colon
# DU-145 prostate = tested on: DU-145 prostate
# EKVX NSCLC = tested on: EKVX NSCLC
# HCC-2998 colon = tested on: HCC-2998 colon
# HCT-116 colon = tested on: HCT-116 colon
# HCT-15 colon = tested on: HCT-15 colon
# HL-60(TB) leukemia = tested on: HL-60(TB) leukemia
# HOP-62 NSCLC = tested on: HOP-62 NSCLC
# HOP-92 NSCLC = tested on: HOP-92 NSCLC
# HS 578T breast = tested on: HS 578T breast
# HT29 colon = tested on: HT29 colon
# IGROV1 ovarian = tested on: IGROV1 ovarian
# K-562 leukemia = tested on: K-562 leukemia
# KM12 colon = tested on: KM12 colon
# LOX IMVI melanoma = tested on: LOX IMVI melanoma
# M14 melanoma = tested on: M14 melanoma
# MALME-3M melanoma = tested on: MALME-3M melanoma
# MCF7 breast = tested on: MCF7 breast
# MDA-MB-231 breast = tested on: MDA-MB-231 breast
# MDA-MB-435 = tested on: MDA-MB-435
# MOLT-4 leukemia = tested on: MOLT-4 leukemia
# NCI-H226 lung = tested on: NCI-H226 lung
# NCI-H23 lung = tested on: NCI-H23 lung
# NCI-H460 lung = tested on: NCI-H460 lung
# NCI-H522 lung = tested on: NCI-H522 lung
# NCI/ADR-RES ovarian = tested on: NCI/ADR-RES ovarian
# OVCAR-3 ovarian = tested on: OVCAR-3 ovarian
# OVCAR-4 ovarian = tested on: OVCAR-4 ovarian
# OVCAR-5 ovarian = tested on: OVCAR-5 ovarian
# OVCAR-8 ovarian = tested on: OVCAR-8 ovarian
# PC-3 prostate = tested on: PC-3 prostate
# RPMI-8226 leukemia = tested on: RPMI-8226 leukemia
# RXF 393 renal = tested on: RXF 393 renal
# SF-268 CNS = tested on: SF-268 CNS
# SF-295 CNS = tested on: SF-295 CNS
# SF-539 CNS = tested on: SF-539 CNS
# SK-MEL-2 melanoma = tested on: SK-MEL-2 melanoma
# SK-MEL-28 melanoma = tested on: SK-MEL-28 melanoma
# SK-MEL-5 melanoma = tested on: SK-MEL-5 melanoma
# SK-OV-3 ovarian = tested on: SK-OV-3 ovarian
# SN12C renal = tested on: SN12C renal
# SNB-19 CNS = tested on: SNB-19 CNS
# SNB-75 CNS = tested on: SNB-75 CNS
# SW-620 colon = tested on: SW-620 colon
# T-47D breast = tested on: T-47D breast
# TK-10 renal = tested on: TK-10 renal
# U251 CNS = tested on: U251 CNS
# UACC-257 melanoma = tested on: UACC-257 melanoma
# UACC-62 melanoma = tested on: UACC-62 melanoma
# UO-31 renal = tested on: UO-31 renal
smiles,measurement,setting,value
N#Cc1nc(-c2ccccc2)oc1S(=O)(=O)N1CCOCC1,GI50,786-0 renal,16 µM
same,TGI,786-0 renal,32 µM
same,GI50,A498 renal,15.6 µM
same,TGI,A498 renal,32 µM
same,GI50,A549 NSCLC,27.9 µM
same,TGI,A549 NSCLC,> 100 µM
same,GI50,ACHN renal,1.76 µM
same,TGI,ACHN renal,3.15 µM
same,GI50,BT-549 breast,6.67 µM
same,TGI,BT-549 breast,19.6 µM
same,GI50,CAKI-1 renal,1.61 µM
same,TGI,CAKI-1 renal,3.04 µM
same,GI50,CCRF-CEM leukemia,1.73 µM
same,TGI,CCRF-CEM leukemia,14.6 µM
same,GI50,COLO 205 colon,2.23 µM
same,TGI,COLO 205 colon,4.91 µM
same,GI50,DU-145 prostate,6.08 µM
same,TGI,DU-145 prostate,19.1 µM
same,GI50,EKVX NSCLC,4.4 µM
same,TGI,EKVX NSCLC,24.9 µM
same,GI50,HCC-2998 colon,17.3 µM
same,TGI,HCC-2998 colon,33.7 µM
same,GI50,HCT-116 colon,1.74 µM
same,TGI,HCT-116 colon,3.42 µM
same,GI50,HCT-15 colon,1.45 µM
same,TGI,HCT-15 colon,3.39 µM
same,GI50,HL-60(TB) leukemia,2.08 µM
same,TGI,HL-60(TB) leukemia,4.79 µM
same,GI50,HOP-62 NSCLC,34.7 µM
same,TGI,HOP-62 NSCLC,> 100 µM
same,GI50,HOP-92 NSCLC,1.6 µM
same,TGI,HOP-92 NSCLC,3.15 µM
same,GI50,HS 578T breast,16.3 µM
same,TGI,HS 578T breast,50 µM
same,GI50,HT29 colon,4.82 µM
same,TGI,HT29 colon,25.4 µM
same,GI50,IGROV1 ovarian,8 µM
same,TGI,IGROV1 ovarian,23.2 µM
same,GI50,K-562 leukemia,2.03 µM
same,TGI,K-562 leukemia,> 100 µM
same,GI50,KM12 colon,23.6 µM
same,TGI,KM12 colon,68 µM
same,GI50,LOX IMVI melanoma,1.46 µM
same,TGI,LOX IMVI melanoma,2.91 µM
same,GI50,M14 melanoma,2.26 µM
same,TGI,M14 melanoma,7.42 µM
same,GI50,MALME-3M melanoma,1.59 µM
same,TGI,MALME-3M melanoma,3.15 µM
same,GI50,MCF7 breast,2.74 µM
same,TGI,MCF7 breast,13.1 µM
same,GI50,MDA-MB-231 breast,14.1 µM
same,TGI,MDA-MB-231 breast,29.9 µM
same,GI50,MDA-MB-435,4.03 µM
same,TGI,MDA-MB-435,15.1 µM
same,GI50,MOLT-4 leukemia,2.01 µM
same,TGI,MOLT-4 leukemia,5.08 µM
same,GI50,NCI-H226 lung,3.67 µM
same,TGI,NCI-H226 lung,16.1 µM
same,GI50,NCI-H23 lung,8.6 µM
same,TGI,NCI-H23 lung,26 µM
same,GI50,NCI-H460 lung,17.3 µM
same,TGI,NCI-H460 lung,37.2 µM
same,GI50,NCI-H522 lung,0.702 µM
same,TGI,NCI-H522 lung,3 µM
same,GI50,NCI/ADR-RES ovarian,14.8 µM
same,TGI,NCI/ADR-RES ovarian,84.2 µM
same,GI50,OVCAR-3 ovarian,2.02 µM
same,TGI,OVCAR-3 ovarian,3.76 µM
same,GI50,OVCAR-4 ovarian,2.73 µM
same,TGI,OVCAR-4 ovarian,9.2 µM
same,GI50,OVCAR-5 ovarian,13.6 µM
same,TGI,OVCAR-5 ovarian,27.6 µM
same,GI50,OVCAR-8 ovarian,3.55 µM
same,TGI,OVCAR-8 ovarian,16.2 µM
same,GI50,PC-3 prostate,5.79 µM
same,TGI,PC-3 prostate,20.8 µM
same,GI50,RPMI-8226 leukemia,2.58 µM
same,TGI,RPMI-8226 leukemia,7.89 µM
same,GI50,RXF 393 renal,1.68 µM
same,TGI,RXF 393 renal,3.08 µM
same,GI50,SF-268 CNS,13.5 µM
same,TGI,SF-268 CNS,40.4 µM
same,GI50,SF-295 CNS,38.2 µM
same,TGI,SF-295 CNS,> 100 µM
same,GI50,SF-539 CNS,2.6 µM
same,TGI,SF-539 CNS,7.69 µM
same,GI50,SK-MEL-2 melanoma,12.7 µM
same,TGI,SK-MEL-2 melanoma,29.8 µM
same,GI50,SK-MEL-28 melanoma,2.46 µM
same,TGI,SK-MEL-28 melanoma,6.5 µM
same,GI50,SK-MEL-5 melanoma,5.23 µM
same,TGI,SK-MEL-5 melanoma,17.3 µM
same,GI50,SK-OV-3 ovarian,56.2 µM
same,TGI,SK-OV-3 ovarian,> 100 µM
same,GI50,SN12C renal,4.12 µM
same,TGI,SN12C renal,17.1 µM
same,GI50,SNB-19 CNS,28 µM
same,TGI,SNB-19 CNS,> 100 µM
same,GI50,SNB-75 CNS,11.2 µM
same,TGI,SNB-75 CNS,23.7 µM
same,GI50,SW-620 colon,2.04 µM
same,TGI,SW-620 colon,4.84 µM
same,GI50,T-47D breast,1.78 µM
same,TGI,T-47D breast,3.84 µM
same,GI50,TK-10 renal,6.25 µM
same,TGI,TK-10 renal,19.2 µM
same,GI50,U251 CNS,17.7 µM
same,TGI,U251 CNS,42.2 µM
same,GI50,UACC-257 melanoma,4.74 µM
same,TGI,UACC-257 melanoma,19 µM
same,GI50,UACC-62 melanoma,9.33 µM
same,TGI,UACC-62 melanoma,21.4 µM
same,GI50,UO-31 renal,1.51 µM
same,TGI,UO-31 renal,2.89 µM

# — PubChem BioAssay (NCI)
